In patent US20080275023A1, “N-Hydroxyamides Omege-Substituted with Tricyclic Groups as Histone Deacetylase Inhibitors, Their Preparation and Use in Pharmaceutical Formulations” (priority 2005, published 2008):

Experiments:
[1] = tested on: HCT-116 human colon carcinoma cells; assay: Cytotoxic activity on culture of human colon carcinoma cells HCT-116 (Alamar Blue); format: cell-based; details: HCT-116 cells, 72 hours after addition of compounds, Alamar Blue viability
Method: Evaluation of Cytotoxic Activity on Culture of Human Colon Carcinoma Cells HCT-116
Human colon carcinoma cells HCT-116 were seeded onto 96-well plates in RPMI1640 culture medium with added 10% FBS and 2 mM glutamine. 24 hours after seeding, the compounds at different concentrations are added. All the compounds are diluted in DMSO such that the final concentrations on the cultures is no greater than 0.5%. 72 hours after addition of the compounds, cell viability is measured by means of the dye Alamar Blue. The result is expressed as percent survival of the treated relative to the control, treated with carrier alone.

[2] = tested on: histone deacetylase (HDAC), HeLa nuclear extract; assay: Deacetylase activity on nuclear extract of HeLa cells (Fluor de Lys kit); format: biochemical, human; details: 0.1 μM compound, percent inhibition relative to control without inhibitor
Method: The activity of the compounds as histone deacetylase (HDAC) inhibitors was measured using an in vitro acetylation assay. The compounds were then evaluated as inhibitors of proliferation of human tumor cell cultures.
Deacetylase Activity on Nuclear Extract of Hela Cells (Human Cervical Cancer Cell)
The assay (Fluor de Lys™ kit, BioMol) is divided into two steps: in the first step the substrate which comprises an acetylated lysine residue is reacted with the nuclear extract (HeLa) containing the enzymatic activity in the presence and absence of inhibitors. In the second step a fluorogenic reagent is added which highlights the deacetylated residues. A reduction in fluorescence is obtained where there has been inhibition of the deacetylase activity.

Row | Structure (SMILES) | IC50 [1] | % inhib at 0.1 μM [2]
1 | O=C(CCCCCN1C(=O)c2ccccc2S(=O)(=O)c2ccccc21)NO [Example 8, 6-(5,5,11-Trioxo-5,11-dihydro-5λ^6-dibenzo[b,f][1,4]thiazepin-10-yl)-hexanoic acid hydroxyamide] | 105 nM | 73%
2 | COc1ccc2c(c1)N(CCCCCC(=O)NO)C(=O)c1ccccc1S2(=O)=O [Example 9, 6-(8-Methoxy-5,5,11-trioxo-5,11-dihydro-5λ^6-dibenzo[b,f][1,4]thiazepin-10-yl)-hexanoic acid hydroxyamide] | 40 nM | 83%
3 | O=C(CCCCCN1C(=O)c2ccccc2S(=O)(=O)c2ccc(Cl)cc21)NO [Example 10, 6-(8-Chloro-5,5,11-trioxo-5,11-dihydro-5λ^6-dibenzo[b,f][1,4]thiazepin-10-yl)-hexanoic acid hydroxyamide] | 30 nM | 77%
4 | COc1ccc2c(c1)N(CCCCCC(=O)NO)C(=O)c1ccccc1[S+]2[O-] (stereo not shown) [Example 11, 6-(8-Methoxy-5,11-dioxo-5,11-dihydro-5λ^4-dibenzo[b,f][1,4]thiazepin-10-yl)-hexanoic acid hydroxyamide] | 50 nM | 73%
5 | O=C(CCCCCN1C(=O)c2ccccc2Oc2ccccc21)NO [Example 12, 6-(11-Oxo-11H-dibenzo[b,f][1,4]oxazepin-10-yl)-hexanoic acid hydroxyamide] | 640 nM | 66%
6 | COc1ccc2c(c1)N(CCCCCC(=O)NO)C(=O)c1ccccc1O2 [Example 13, 6-(8-Methoxy-11-oxo-11H-dibenzo[b,f][1,4]oxazepin-10-yl)-hexanoic acid hydroxyamide] | 310 nM | 73%
7 | O=C(CCCCCN1C(=O)c2ccccc2Oc2ccc(Cl)cc21)NO [Example 14, 6-(8-Chloro-11-oxo-11H-dibenzo[b,f][1,4]oxazepin-10-yl)-hexanoic acid hydroxyamide] | 200 nM | 65%
8 | O=C(CCCCCCN1C(=O)c2ccccc2Oc2ccccc21)NO [Example 15, 7-(11-Oxo-11H-dibenzo[b,f][1,4]oxazepin-10-yl)-heptanoic acid hydroxyamide] | 200 nM | 62%
9 | O=C(CCCCCN1C(=O)c2cscc2Nc2cc(Cl)c(Cl)cc21)NO [Example 17, 6-(6,7-Dichloro-10-oxo-4H,10H-2-thia-4,9-diaza-benzo[f]azulen-9-yl)-hexanoic acid hydroxyamide] | 800 nM | 
10 | CN(C)c1ccc2c(c1)S(=O)(=O)N(CCCCCC(=O)NO)c1ccccc1N2 [Example 20, 6-(8-Dimethylamino-10,10-dioxo-5,10-dihydro-10λ^6-thia-5,11-diaza-dibenzo[a,d]cyclohepten-11-yl)-hexanoic acid hydroxyamide] | 390 nM | 40%
11 | COc1ccc2c(c1)Nc1ccccc1S(=O)(=O)N2CCCCCC(=O)NO [Example 21, 6-(3-Methoxy-10,10-dioxo-5,10-dihydro-10λ^6-thia-5,11-diaza-dibenzo[a,d]cyclohepten-11-yl)-hexanoic acid hydroxyamide] | 290 nM | 
12 | O=C(CCCCCN1c2ccccc2Oc2ccccc2S1(=O)=O)NO [Example 23, 6-(10,10-Dioxo-10H-5-oxa-10λ^6-thia-11-aza-dibenzo[a,d]cyclohepten-11-yl)-hexanoic acid hydroxyamide] | 190 nM | 48%
13 | O=C(CCCCCN1c2cc(F)ccc2Nc2ccccc2S1(=O)=O)NO [Example 25, 6-(2-Fluoro-10,10-dioxo-5,10-dihydro-10λ^6-thia-5,11-diaza-dibenzo[a,d]cyclohepten-11-yl)-hexanoic acid hydroxyamide] | 1500 nM | 42%
14 | CN(C)c1ccc2c(c1)S(=O)(=O)N(CCCCCC(=O)NO)c1ccc(O)cc1N2 [Example 26, 6-(8-Dimethylamino-3-hydroxy-10,10-dioxo-5,10-dihydro-10λ^6-thia-5,11-diaza-dibenzo[a,d]cyclohepten-11-yl)-hexanoic acid hydroxyamide] | 1000 nM | 66%
15 | COc1ccc2c(c1)Nc1ccc(N(C)C)cc1S(=O)(=O)N2CCCCCC(=O)NO [Example 27, 6-(8-Dimethylamino-3-methoxy-10,10-dioxo-5,10-dihydro-10λ^6-thia-5,11-diaza-dibenzo[a,d]cyclohepten-11-yl)-hexanoic acid hydroxyamide] | 400 nM | 63%
16 | COc1ccc2c(c1)N(CCCCCC(=O)NO)S(=O)(=O)c1ccccc1N2 [Example 29, 6-(2-Methoxy-10,10-dioxo-5,10-dihydro-10λ^6-thia-5,11-diaza-dibenzo[a,d]cyclohepten-11-yl)-hexanoic acid hydroxyamide] | 900 nM | 54%
17 | COc1ccc2c(c1)Nc1ccccc1N(CCCCCC(=O)NO)S2(=O)=O [Example 30, 6-(7-Methoxy-10,10-dioxo-5,10-dihydro-10λ^6-thia-5,11-diaza-dibenzo[a,d]cyclohepten-11-yl)-hexanoic acid hydroxyamide] | 390 nM | 65%
18 | Nc1cccc2c1Nc1ccccc1S(=O)(=O)N2CCCCCC(=O)NO [Example 32, 6-(4-Amino-10,10-dioxo-5,10-dihydro-10λ^6-thia-5,11-diaza-dibenzo[a,d]cyclohepten-11-yl)-hexanoic acid hydroxyamide] | 2000 nM | 47%
